pEC50, pIC50, pKi: −log10 of the molar value. *1 amine or outer side, *2 acyl side, *3 side chain or, on linkers, in order; H or OH if unused. Where a SMILES comes first, the peptide text is derived from it. [ ]: non-standard residue; d: D form. X1 = N=C(N)N[C@@H](CCCCN[*:1])C(=O)[*:2]; βAla = NCCC(=O)O
Tests used:
[1] = tested on: Zika virus; assay: Antiviral activity against Zika virus Puerto Rico strain PRVABC59 infected in human A549 cells measured after 48 hrs by plaque reduction assay; assay type: functional, organism-based; settings: Puerto Rico strain PRVABC59, A549, 48 h
[2] = tested on: West Nile virus; assay: Antiviral activity against West Nile virus NY003356V2 infected in human A549 cells measured after 48 hrs by plaque reduction assay; assay type: functional, organism-based; settings: NY003356V2, A549, 48 h
[3] = Cytotoxicity against human A549 cells incubated for 42 hrs by MTT assay; assay type: toxicity, cell-based
[4] = tested on: dengue virus type 2; assay: Antiviral activity against DENV2 New Guinea C infected in human A549 cells measured after 48 hrs by plaque reduction assay; assay type: functional, organism-based; settings: A549, 48 h
[5] = Inhibition of DENV3 NS2B (50 to 95 residues)-NS3 (1 to 182 residues) protease expressed in Escherichia coli BL21-rosetta cells using Bz-Nle-Lys-Lys-Arg-AMC as substrate preincubated for 10 mins followed by substrate addition and measured every 30 secs; design: species or system dengue virus type 3
[6] = tested on: West Nile virus; assay: Antiviral activity against West Nile virus NY99 infected in human A549 cells measured after 48 hrs by plaque reduction assay; assay type: functional, organism-based; settings: NY99, A549, 48 h
[7] = Inhibition of Dengue virus 4 NS2B-NS3 protease using Benzoyl-Nle-Lys-Arg-Arg-AMC as substrate preincubated for 1 hrs followed by substrate addition and measured after 10 mins by fluorescence based plate reader analysis; design: species or system dengue virus type 4
[8] = Cytotoxicity against golden hamster BHK-21 cells incubated for 24 hrs by ATP-lite assay; assay type: toxicity, cell-based, Mesocricetus auratus
[9] = tested on: West Nile virus; assay: Antiviral activity against West Nile virus New York 99 infected in golden hamster BHK-21 cells co-expressing renilla luciferase assessed as inhibition of viral […] replication incubated for 24 hrs; assay type: functional, organism-based; settings: New York 99, BHK-21, 24 h
[10] = target: Genome polyprotein (West Nile virus) (UniProt P06935); assay: Uncompetitive inhibition of recombinant West Nile virus NS2B-NS3 protease using Pyr-RTKR-AMC as substrate assessed as inhibition constant preincubated for 15 mins followed by substrate addition
Target sequence in this assay (P06935 1371-1501 limits assumed): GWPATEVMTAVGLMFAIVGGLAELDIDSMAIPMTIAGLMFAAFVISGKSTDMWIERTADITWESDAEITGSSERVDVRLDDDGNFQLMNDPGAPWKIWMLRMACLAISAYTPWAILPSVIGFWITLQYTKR
Target sequence in this assay (P06935 1502-2120 limits assumed): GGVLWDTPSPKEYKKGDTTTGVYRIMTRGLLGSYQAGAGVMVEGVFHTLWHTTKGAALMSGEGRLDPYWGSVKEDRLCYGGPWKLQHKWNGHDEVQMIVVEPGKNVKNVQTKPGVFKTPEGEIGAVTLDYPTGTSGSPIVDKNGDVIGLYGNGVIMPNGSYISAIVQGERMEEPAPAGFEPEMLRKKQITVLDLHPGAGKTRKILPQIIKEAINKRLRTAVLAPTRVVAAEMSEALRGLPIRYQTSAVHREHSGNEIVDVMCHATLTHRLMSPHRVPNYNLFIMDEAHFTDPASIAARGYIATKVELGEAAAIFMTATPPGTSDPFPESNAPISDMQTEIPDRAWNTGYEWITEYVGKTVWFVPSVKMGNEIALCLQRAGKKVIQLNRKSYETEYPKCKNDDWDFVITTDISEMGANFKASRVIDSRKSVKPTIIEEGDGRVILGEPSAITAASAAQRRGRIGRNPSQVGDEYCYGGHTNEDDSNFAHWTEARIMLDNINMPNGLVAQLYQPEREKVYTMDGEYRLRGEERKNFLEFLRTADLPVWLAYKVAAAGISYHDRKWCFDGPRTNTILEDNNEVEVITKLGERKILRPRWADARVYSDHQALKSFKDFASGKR

[11] = Cytotoxicity against golden hamster BHK-21 cells incubated for 24 hrs by CCK-8 assay; assay type: toxicity, cell-based, Mesocricetus auratus
[12] = tested on: dengue virus type 2; assay: Antiviral activity against DENV2 infected in golden hamster BHK-21 cells preincubated with virus for 18 hrs followed by compound addition and measured after 24 hrs by plaque reduction assay; assay type: functional, organism-based
[13] = target: Genome polyprotein (West Nile virus) (UniProt P06935); assay: Inhibition of West Nile virus NS2B-NS3 protease using Bz-nKRR-AMC as substrate assessed as inhibition constant preincubated for 30 mins followed by substrate addition and measured after 60 mins by fluorescence based microplate reader analysis; settings: time 90.0 min
Target sequence in this assay (P06935 whole entry): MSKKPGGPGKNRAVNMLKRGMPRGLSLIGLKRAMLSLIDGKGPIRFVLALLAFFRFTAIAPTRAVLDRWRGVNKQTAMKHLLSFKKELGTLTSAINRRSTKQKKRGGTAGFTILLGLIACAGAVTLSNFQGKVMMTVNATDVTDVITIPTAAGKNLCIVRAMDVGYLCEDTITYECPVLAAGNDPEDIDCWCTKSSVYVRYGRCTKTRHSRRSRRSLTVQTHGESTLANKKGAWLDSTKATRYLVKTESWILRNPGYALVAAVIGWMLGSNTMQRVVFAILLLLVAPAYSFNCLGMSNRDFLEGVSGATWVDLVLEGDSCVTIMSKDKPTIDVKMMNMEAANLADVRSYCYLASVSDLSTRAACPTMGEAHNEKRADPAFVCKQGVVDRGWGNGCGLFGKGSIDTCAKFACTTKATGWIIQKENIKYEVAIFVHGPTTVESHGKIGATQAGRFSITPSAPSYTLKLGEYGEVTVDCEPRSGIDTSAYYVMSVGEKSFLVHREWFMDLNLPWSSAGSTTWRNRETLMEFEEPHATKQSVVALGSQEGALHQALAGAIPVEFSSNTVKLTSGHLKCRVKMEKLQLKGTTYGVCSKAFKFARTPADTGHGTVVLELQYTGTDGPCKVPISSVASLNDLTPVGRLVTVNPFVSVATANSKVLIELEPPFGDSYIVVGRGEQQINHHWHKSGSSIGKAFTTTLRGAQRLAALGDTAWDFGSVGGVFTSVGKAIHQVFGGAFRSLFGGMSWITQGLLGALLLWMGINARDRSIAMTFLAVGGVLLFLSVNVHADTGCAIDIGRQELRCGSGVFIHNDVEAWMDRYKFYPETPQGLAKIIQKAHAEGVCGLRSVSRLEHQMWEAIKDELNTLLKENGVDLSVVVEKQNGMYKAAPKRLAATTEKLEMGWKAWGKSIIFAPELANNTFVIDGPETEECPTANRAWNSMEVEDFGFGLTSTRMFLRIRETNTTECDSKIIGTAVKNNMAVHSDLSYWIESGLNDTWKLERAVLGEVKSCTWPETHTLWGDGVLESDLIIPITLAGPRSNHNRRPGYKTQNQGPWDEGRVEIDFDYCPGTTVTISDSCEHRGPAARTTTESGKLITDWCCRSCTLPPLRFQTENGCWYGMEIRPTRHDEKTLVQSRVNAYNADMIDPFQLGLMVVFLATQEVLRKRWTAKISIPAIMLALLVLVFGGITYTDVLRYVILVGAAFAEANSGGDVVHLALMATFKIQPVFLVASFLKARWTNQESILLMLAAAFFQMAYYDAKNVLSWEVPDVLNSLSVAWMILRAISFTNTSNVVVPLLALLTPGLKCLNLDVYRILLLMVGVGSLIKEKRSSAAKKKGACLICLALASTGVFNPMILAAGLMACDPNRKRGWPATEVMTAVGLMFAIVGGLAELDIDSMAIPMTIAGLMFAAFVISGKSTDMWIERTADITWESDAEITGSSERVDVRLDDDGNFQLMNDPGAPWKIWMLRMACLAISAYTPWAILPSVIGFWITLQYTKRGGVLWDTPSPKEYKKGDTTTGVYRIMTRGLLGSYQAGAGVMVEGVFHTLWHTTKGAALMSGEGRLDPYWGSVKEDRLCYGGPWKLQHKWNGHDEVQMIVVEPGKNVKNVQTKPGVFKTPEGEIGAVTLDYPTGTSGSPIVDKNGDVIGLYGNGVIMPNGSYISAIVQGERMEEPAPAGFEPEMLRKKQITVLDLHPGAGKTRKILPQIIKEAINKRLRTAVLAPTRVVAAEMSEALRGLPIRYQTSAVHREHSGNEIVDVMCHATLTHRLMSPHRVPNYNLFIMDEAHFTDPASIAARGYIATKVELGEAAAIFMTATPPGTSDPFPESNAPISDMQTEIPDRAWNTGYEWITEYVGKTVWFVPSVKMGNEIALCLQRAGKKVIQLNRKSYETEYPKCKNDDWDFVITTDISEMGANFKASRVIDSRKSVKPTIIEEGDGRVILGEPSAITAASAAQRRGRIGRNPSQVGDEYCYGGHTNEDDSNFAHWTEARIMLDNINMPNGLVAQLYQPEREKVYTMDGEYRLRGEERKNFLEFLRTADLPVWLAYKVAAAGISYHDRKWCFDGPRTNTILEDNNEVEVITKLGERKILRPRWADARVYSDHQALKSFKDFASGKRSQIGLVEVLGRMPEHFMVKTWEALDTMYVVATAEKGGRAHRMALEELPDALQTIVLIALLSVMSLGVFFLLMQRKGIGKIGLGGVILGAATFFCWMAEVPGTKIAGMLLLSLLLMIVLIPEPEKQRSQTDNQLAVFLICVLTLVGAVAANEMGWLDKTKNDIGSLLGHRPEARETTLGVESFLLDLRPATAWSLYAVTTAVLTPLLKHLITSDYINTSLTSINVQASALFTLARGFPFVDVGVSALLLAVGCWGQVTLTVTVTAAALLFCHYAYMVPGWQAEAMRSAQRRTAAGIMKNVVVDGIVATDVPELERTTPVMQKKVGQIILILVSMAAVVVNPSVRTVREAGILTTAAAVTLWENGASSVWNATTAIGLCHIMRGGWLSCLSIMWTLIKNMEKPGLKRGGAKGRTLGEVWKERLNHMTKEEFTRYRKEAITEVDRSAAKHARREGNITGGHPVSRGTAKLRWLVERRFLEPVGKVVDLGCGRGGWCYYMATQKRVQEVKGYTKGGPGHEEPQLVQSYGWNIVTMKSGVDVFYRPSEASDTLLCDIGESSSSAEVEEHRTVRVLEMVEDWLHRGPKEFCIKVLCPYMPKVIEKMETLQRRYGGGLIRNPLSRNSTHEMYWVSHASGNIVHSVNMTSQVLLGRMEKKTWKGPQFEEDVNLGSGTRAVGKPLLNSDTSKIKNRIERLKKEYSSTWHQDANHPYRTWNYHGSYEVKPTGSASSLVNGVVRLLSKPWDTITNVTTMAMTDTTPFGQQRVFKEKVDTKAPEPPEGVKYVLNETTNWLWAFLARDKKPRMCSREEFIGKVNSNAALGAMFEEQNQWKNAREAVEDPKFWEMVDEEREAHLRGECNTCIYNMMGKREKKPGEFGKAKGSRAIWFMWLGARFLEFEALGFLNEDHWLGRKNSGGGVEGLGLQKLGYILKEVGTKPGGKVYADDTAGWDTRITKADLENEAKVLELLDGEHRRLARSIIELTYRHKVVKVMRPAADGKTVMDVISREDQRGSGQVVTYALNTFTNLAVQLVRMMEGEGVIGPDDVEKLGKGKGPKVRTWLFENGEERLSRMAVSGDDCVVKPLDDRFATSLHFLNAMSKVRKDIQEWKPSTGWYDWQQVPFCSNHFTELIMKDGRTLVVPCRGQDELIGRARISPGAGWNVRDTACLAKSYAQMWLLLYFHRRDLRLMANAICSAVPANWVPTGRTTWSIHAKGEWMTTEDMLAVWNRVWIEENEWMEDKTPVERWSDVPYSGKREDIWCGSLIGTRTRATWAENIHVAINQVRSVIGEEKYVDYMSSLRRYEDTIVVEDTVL

[14] = target: Prothrombin (Homo sapiens, UniProt P00734); assay: Inhibition of thrombin (unknown origin) using CH3SO2-dCha-Gly-Arg-pNA as substrate by […] plate reader analysis
[15] = target: Coagulation factor X (Homo sapiens, UniProt P00742); assay: Inhibition of factor Xa (unknown origin) using CH3OCO-dCha-Gly-Arg-pNA as substrate by […] plate reader analysis
[16] = tested on: West Nile virus; assay: Inhibition of West Nile virus EG101 NS2BH-NS3 protease expressed in Escherichia coli Top10 F' cells using Boc-Gly-Lys-Arg-AMC as substrate preincubated with compound for 15 mins followed by substrate addition and measured after 15 mins by fluorescence based assay; settings: time 30.0 min
[17] = tested on: dengue virus type 2; assay: Antiviral activity against DENV2 infected in human A549 cells measured after 42 hrs by plaque reduction assay; assay type: functional, organism-based; settings: A549, 42 h
[18] = tested on: Zika virus; assay: Antiviral activity against Zika virus Puerto Rico strain PRVABC59 infected in human A549 cells measured after 42 hrs incubation under dark conditions by plaque reduction assay; assay type: functional, organism-based; settings: Puerto Rico strain PRVABC59, A549, 42 h
[19] = tested on: West Nile virus; assay: Antiviral activity against West Nile virus infected in human A549 cells measured after 42 hrs by plaque reduction assay; assay type: functional, organism-based
[20] = tested on: dengue virus type 2; assay: Antiviral activity against DENV2 infected in African green monkey Vero cells assessed as inhibition of viral infection by virucidal assay; assay type: functional, organism-based
[21] = tested on: dengue virus type 3; assay: Antiviral activity against DENV3 infected in African green monkey Vero cells assessed as inhibition of viral infection by virucidal assay; assay type: functional, organism-based
[22] = tested on: dengue virus type 1; assay: Antiviral activity against DENV1 infected in African green monkey Vero cells assessed as inhibition of viral infection by virucidal assay; assay type: functional, organism-based
[23] = Cytotoxicity against African green monkey Vero cells incubated for 24 hrs by MTT assay; assay type: toxicity, cell-based; settings: chlorocebus sabaeus
[24] = tested on: dengue virus type 4; assay: Antiviral activity against DENV4 infected in African green monkey Vero cells assessed as inhibition of viral infection by virucidal assay; assay type: functional, organism-based

Chain of Coagulation factor X (P00742 41-179 limits assumed): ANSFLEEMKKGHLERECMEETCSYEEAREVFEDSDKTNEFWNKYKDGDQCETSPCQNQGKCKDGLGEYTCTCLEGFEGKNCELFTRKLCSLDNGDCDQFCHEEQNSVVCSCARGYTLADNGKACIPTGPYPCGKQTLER
Chain of Coagulation factor X (P00742 235-488 limits assumed): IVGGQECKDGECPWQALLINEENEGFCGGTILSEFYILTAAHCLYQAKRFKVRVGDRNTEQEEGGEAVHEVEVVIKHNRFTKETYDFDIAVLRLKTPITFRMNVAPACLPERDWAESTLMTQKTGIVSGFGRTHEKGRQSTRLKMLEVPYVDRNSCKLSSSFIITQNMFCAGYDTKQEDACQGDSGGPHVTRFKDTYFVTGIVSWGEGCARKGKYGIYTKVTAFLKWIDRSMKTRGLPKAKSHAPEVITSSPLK

SMILES: O=C1C=C/C(=N\Nc2ccc([N+](=O)[O-])cc2Cl)C=C1C(=O)Nc1cccc(Cl)c1
- pEC50 [1]: 6.00
- pEC50 [2]: 5.90
- CC50 at 42 h [3]: 48800 nM
- pEC50 [4]: 6.09

SMILES: NCc1ccc(-c2ncc(OCC3CCNCC3)nc2-c2ccc(-c3cn[nH]c3)cc2)cc1
- pIC50 [5]: 6.70

SMILES: O=C1OC2(c3ccccc31)c1cc(I)c(O)c(I)c1Oc1c2cc(I)c(O)c1I [ERYTHROSINE]
- pEC50 [1]: 6.21
- pEC50 [4]: 5.92
- pEC50 [6]: 6.18

SMILES: N=C(N)N[C@H]1CCCCNC(=O)[C@H](CCCCN)NC(=O)[C@H](CCCCN)NC(=O)CCNC(=O)CNC(=O)CNC1=O (cyclo(GG[βAla]KK[X1]))
- pKi [7]: 6.80

SMILES: Clc1cc(OCc2nnc3sc(Cc4ccccc4)nn23)c(Cl)cc1OCc1nnc2sc(Cc3ccccc3)nn12
- CC50 at 24 h [8]: > 200000 nM
- pEC50 [9]: 4.77

SMILES: CCc1ccc(NC(=O)CSc2nc3ccc(NC(=O)CSc4nnc(-c5ccccc5)[nH]4)cc3s2)cc1
- K [10]: 2.8 µM

SMILES: Cc1ccc(C(=O)c2cc(O)c(O)c([N+](=O)[O-])c2)cc1 [TOLCAPONE]
- CC50 at 24 h [11]: 29200 nM
- pEC50 [12]: 5.70

SMILES: N=C(N)Nc1ccc(OC(=O)c2ccc(NC(=N)N)cc2)cc1
- K [13]: 4.6 µM

SMILES: N=C(N)N[C@H]1CC[C@H](CNC(=O)[C@H](CCCCN)NC(=O)[C@H](CCCCN)NC(=O)Cc2ccc(Cl)c(Cl)c2)CC1
- pKi [14]: < 3.30
- pKi [15]: < 3.70

SMILES: Oc1ccccc1C(Nc1nccs1)c1ccc2cccnc2c1O (stereo not drawn)
- K [16]: 3.4 µM

SMILES: Oc1cccc(-c2c3nc(c(-c4cccc(O)c4)c4ccc([nH]4)c(-c4cccc(O)c4)c4nc(c(-c5cccc(O)c5)c5ccc2[nH]5)CC4)C=C3)c1 [TEMOPORFIN]
- pEC50 [17]: 7.70
- pEC50 [18]: 7.66
- CC50 at 42 h [3]: 40700 nM
- pEC50 ([19]; A549, 42 h): 8.00
- EC90 ([19]; A549, time 42 hrs): 30 nM

SMILES: C=CCc1ccc(OCc2cn(Cc3ccccc3Br)nn2)c(OC)c1
- pEC50 [20]: 4.85
- pEC50 [21]: 4.85
- pEC50 [22]: 4.85
- CC50 at 24 h [23]: > 300000 nM
- pEC50 [24]: 4.85

Reference: ChEMBL document CHEMBL5223065, “Targeting the protease of West Nile virus” (RSC Med Chem, 2021)
